Tests used:
[1] = target: T1, FKBP (SEQ ID NO: 142) and FRBT2098L (SEQ ID NO: 140) heterodimerization (Homo sapiens, UniProt P42345+P62942+Q04206, T2098L); assay: A/C heterodimerizer-inducible HumTAP gene expression system in HEK293 cells; format: cell-based
T1 construct: expressed in transfected cells; host or cells: HEK293
Text: One well-characterized small-molecule based dimerization system is based on the rapamycin analog A/C (C16-(S)-7-methylindolerapamycin) that induces heterodimerization between the human proteins FK506-binding protein 12 (FKBP; SEQ ID NO: 142) and the FKBP12-rapamycin binding domain (FRB) mutant FRBT2098L (SEQ ID NO: 140), [31]. To achieve A/C heterodimerizer-inducible gene expression, the inventors fused FKBP (SEQ ID NO: 142) to the N-terminus of MTERF158-399 (SEQ ID NO: 1) and FRB (SEQ ID NO: 140) to the C-terminus of different transactivation domains (FIG. 10A). […] In accordance with the results described above, chimeric transactivation domains mediated higher maximal output expression levels than RelA430-551.
The inventors reasoned that in the present system, dimerization might be hindered by either FRB's or FKBP's fusion partner and investigated whether the addition of linkers between the protein domains might impact the EC50 value (FIG. 10 D). A combination of the cMyc nuclear localization signal (NLS) (SEQ ID NO: 122) linking MTERF158-399 and FKBP, and the rigid linker AP6 (SEQ ID NO: 120) linking FRB and RelA430-551 led to a reduction in EC50 to ~60 nM while also increasing maximal output ~3-fold over the variant without linkers and RelA430-551 as TAD (FIG. 10 D).

[2] = target: FRB and FKBP dimerization (Homo sapiens, UniProt P42345+P62942, T2098L); conditions: previously reported A/C-inducible FRB and FKBP systems [31], [33]; cited from earlier work
Sequence of FRB and FKBP dimerization (P62942 whole entry): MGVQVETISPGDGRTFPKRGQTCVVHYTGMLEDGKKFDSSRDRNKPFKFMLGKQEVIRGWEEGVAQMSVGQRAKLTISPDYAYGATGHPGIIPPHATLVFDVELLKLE
Sequence of FRB and FKBP dimerization (P42345 2012-2144 T2098L): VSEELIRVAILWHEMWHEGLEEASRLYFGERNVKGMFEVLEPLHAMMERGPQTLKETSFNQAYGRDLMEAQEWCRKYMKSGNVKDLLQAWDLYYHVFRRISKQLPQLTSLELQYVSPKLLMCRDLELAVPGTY

T1 sequence (P62942 with tags, fused parts or gaps, stated change not applied): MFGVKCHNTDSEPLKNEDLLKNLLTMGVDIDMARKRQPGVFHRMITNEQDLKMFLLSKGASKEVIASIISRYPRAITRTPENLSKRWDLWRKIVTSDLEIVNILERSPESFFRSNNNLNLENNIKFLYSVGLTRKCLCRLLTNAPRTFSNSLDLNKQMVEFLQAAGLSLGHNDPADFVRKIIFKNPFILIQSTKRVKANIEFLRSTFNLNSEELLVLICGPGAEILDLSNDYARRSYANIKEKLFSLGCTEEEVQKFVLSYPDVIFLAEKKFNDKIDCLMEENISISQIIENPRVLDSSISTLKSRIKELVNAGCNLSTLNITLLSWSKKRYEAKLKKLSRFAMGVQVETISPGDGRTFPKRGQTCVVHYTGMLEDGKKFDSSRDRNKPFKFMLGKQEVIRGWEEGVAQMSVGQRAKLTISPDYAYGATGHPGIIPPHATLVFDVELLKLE
T1 sequence (P42345+Q04206 fused P42345:T2098L): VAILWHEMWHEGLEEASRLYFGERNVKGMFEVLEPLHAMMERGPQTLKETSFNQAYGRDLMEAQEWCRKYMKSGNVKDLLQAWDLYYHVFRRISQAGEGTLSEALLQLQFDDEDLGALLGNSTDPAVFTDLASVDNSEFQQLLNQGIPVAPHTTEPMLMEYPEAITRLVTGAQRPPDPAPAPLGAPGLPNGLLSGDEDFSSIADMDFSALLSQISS

- mCerulean levels versus inducer concentration ([1]; HEK cells co-transfected with MTERF158-399::FKBP and FRB fusions to the strongest TADs, FIG. 10C): increased dose-dependently
- EC50 ([1]; cMyc NLS linking MTERF158-399 and FKBP, AP6 linker linking FRB and RelA430-551, FIG. 10D): ~0.06 µM
Substance: C16-(S)-7-methylindolerapamycin [A/C heterodimerizer]
- EC50 [2]: ~0.001 µM
